# Data taken from patent US20150290357A1, “ANTIMICROBIAL ADHESIVE” (GeneJet Biotech, Inc., priority 2014, published 2015).
# Test system: staphylococcus aureus
# Assay: Antimicrobial inhibition zone test based on ATCC6538p
# Type: cell-based
# Method: The antimicrobial adhesive prepared by the foregoing method is placed in a 7 ml glass vial and it is used to perform stability test for Ag/PP particulates, polymerization test for the cyanoacrylate monomers (as shown in Table 1), antimicrobial test for staphylococcus aureus (as shown in Table 2) and antimicrobial test for escherichia coli (as shown in Table 3).
compound,measurement,setting,value
"C=C(C#N)C(=O)OC(C)CCCCCC (centres unmarked) [Experiment C, 2-octyl cyanoacrylate]",Increased in the diameter of inhibition zone (%) (compared to Control),compared to Control (filter paper),16.4%
same,Diameter of inhibition zone,"on filter paper, ATCC6538p",0.93 cm
